One block for each compound: values may come before it.
Columns and labels:
BRAF-MEK1 complex [1] = molecular target: T1, BRAF-MEK1 complex (Homo sapiens, UniProt P15056+Q02750); experiment: Co-immunoprecipitation via endogenous MEK1 from HCT116 cells, BRAF; type: cell-based; details: 200 nM, 1 hour, relative to DMSO
T1 construct: IP/WB of endogenous MEK1 from HCT116 cells; endogenous in cells; host or cells: HCT116

KSR1-MEK1 complex = KSR1-MEK1 complex (UniProt Q02750+Q61097, P775N); experiment: Co-immunoprecipitation via endogenous MEK1 from HCT116 cells, FLAG-KSR1; type: cell-based, mouse KSR1; details: 200 nM, 1 hour
KSR1-luc (KSR-bound MEK) = KSR1-luc (KSR-bound MEK) (UniProt Q02750+Q61097); experiment: NanoBRET washout experiment, intracellular residence time, KSR1-luc; type: binding, mouse; details: BRET build-up with 1 μM tram-bo, […] time course
Description: (§1) Specifically, transfections of MEK1-luc and KSR1-luc, and construction of the drug transfer plates were carried out as mentioned above. For washout experiments, cells were first removed from adherent plates by trypsin treatment. Following, cells were harvested, spun, and resuspended in Opti-MEM (270 μL total) in centrifuge tubes at 450,000 cells/tube.

[2] = molecular target: T2, mouse KSR1-luc (KSR-bound MEK) (UniProt Q02750+Q61097); experiment: NanoBRET in-cell steady-state IC50 (competition with tram-bo tracer), KSR1-luc; type: binding
T2 construct: expressed in transfected cells; host or cells: HEK293T

MEK1-luc [3] = molecular target: T3, MEK1-luc (Homo sapiens, UniProt Q02750); experiment: NanoBRET washout experiment, intracellular residence time, MEK1-luc; type: binding; details: BRET build-up with 1 μM tram-bo, […] time course
Description: as §1

MEK1-luc [4] = molecular target: T3, MEK1-luc; experiment: NanoBRET in-cell steady-state IC50 (competition with tram-bo tracer), MEK1-luc; details: IC50 MEK1-luc versus KSR1-luc
BRAF-MEK1 complex [5] = molecular target: BRAF-MEK1 complex (Homo sapiens, UniProt P15056+Q02750, R662A); experiment: Co-immunoprecipitation via endogenous MEK1 from HCT116 cells, BRAF; type: cell-based; details: 200 nM, 1 hour
KRAS-G12S A549 cells = experiment: Long-term clonogenic assay; type: cell-based, human; details: 10 nM final concentration, in comparison to amide-linker compounds (1, 3)
Description: Cells were plated at a density of 6,000 cells per well in 6-well plates in 3 mL of culture medium. Twenty-four hours after seeding, compounds dissolved in DMSO or DMSO-only vehicles were added directly to the culture media at a 1:1000 dilution. Following 10 days of culture, cells were washed 2× in PBS, fixed in ice-cold methanol for 10 minutes, stained with crystal-violet at room temperature for 10 minutes, and subsequently washed three times in water. Plates were allowed to dry overnight before imagining with an Epson V600 scanner.

human KSR2-luc = molecular target: T4, human KSR2-luc (Homo sapiens, UniProt Q02750+Q6VAB6); experiment: Tram-bo BRET buildup curves, KSR2-luc; type: binding
T4 construct: expressed in transfected cells; host or cells: HEK293T
Description: (§2) Human c-terminal NanoLuc fusions versions of ARAF (Uniprot P10398), BRAF (UniProt P15056), CRAF (Uniprot P04049), KSR1 (Uniprot Q8IVT5), and KSR2 (Uniprot Q6VAB6) were transfected as mentioned above at a concentration of 0.1 μg/mL in combination with 9.9 μg/mL of carrier DNA. All RAF constructs from Promega. […] A 20× tram-bo solution was added to each well to give final concentrations of 4, 1, 0.5, 0.1, 0.05, 0.01, 0.001, 0.0001 μM. […] All data were analyzed using Prism 8 (GraphPad).

[6] = tested on: ARAF-luc, BRAF-luc, and CRAF-luc; experiment: Tram-bo BRET buildup curves, RAF family; type: binding, human; details: in cells
Description: as §2

human KSR1-luc = molecular target: T5, human KSR1-luc (Homo sapiens, UniProt Q02750+Q8IVT5); experiment: Tram-bo BRET buildup curves, KSR1-luc; type: binding
T5 construct: expressed in transfected cells; host or cells: HEK293T
Description: as §2

HCT 116 = experiment: Cell proliferation / viability assay under low-adherence conditions; type: cell-based, human
Description: A375, A549, HCT116, and SKMEL-239 cells were plated in Corning Costar Ultra-Low Attachment 96-well plates (Reference number 3434). After 24 hours of incubation at 37° C., cells were treated with inhibitors (0.1% DMSO in final volume). Cells were grown for five days, and resazurin sodium salt was added at a final concentration of 0.01 μg/μL. Fluorescence was measured using a Molecular Devices SpectraMax M5 spectrophotometer after a 4-24-hour incubation with resazurin solution. Technical triplicate values were averaged for each experiment, and biological replicate values are represented as average+/−standard deviation. For each cell line, log EC50 values of inhibitors were statistically compared using the extra sum-of-squares F test in GraphPad Prism 8 (FIG. 57, 58, 67, 68, 69).

[7] = tested on: phosphorylated ERK1/2 at residues T202 and Y204 (pERK); experiment: Immunoblot of RAS/ERK pathway inhibition; type: cell-based, human; details: 1 hour, increasing concentrations
Description: Cells were plated at a density of 300,000 cells per well in 6-well plates in 2 mL of culture medium. 24 hours after seeding, cells were treated with compounds or DMSO at a 1:1000 dilution (0.1% DMSO in final volume). […] Samples were normalized to a protein content of 5 μg/μL in 100 μL total volume, and 20 μL of 6×SDS was added. […] Transfers were confirmed using ponceau red, washed, and then blocked for 1 hour with 5% BSA TBS-T, prior to overnight incubation with primary antibodies including phospho-ERK1/2 T202/Y204 and total ERK1/2 (Cell Signaling Technologies (CST) 9101S and 4695S, respectively) in 5% BSA TBS-T. The next day, blots were washed extensively, and incubated in secondary antibody (Anti-Rabbit IgG HRP-Linked CST 7074S).

MEK1 and MEK2 [8] = experiment: In vitro kinase profiling, direct binding assays, MEK1/MEK2; details: 1 μM
Text: (§3) FIG. 65 Trametiglue targets both KSR-MEK and RAF-MEK with unprecedented potency and selectivity via unique interfacial binding interactions.

MEK1 and MEK2 [9] = experiment: In vitro substrate phosphorylation assays, MEK1/MEK2; type: biochemical; details: panel of active kinases
Text: as §3

isolated BRAF or CRAF = experiment: In vitro kinase profiling, direct binding assays, BRAF/CRAF; details: 1 μM
Text: as §3

[10] = tested on: BRAF and CRAF phosphorylation of MEK1; experiment: In vitro phosphorylation of MEK1 by upstream kinases; type: biochemical; details: MEK1 as substrate
Text: as §3

KSR1-MEK1 = molecular target: T6, KSR1-MEK1 (UniProt P29678+Q8IVT5, S298N/S299K/Y300F); experiment: Bio-layer interferometry (BLI), KSR1-MEK1; type: binding, human KSR1; rabbit MEK1; details: read-out: dissociation constant (KD), KSR1-MEK1
T6 construct: human KSR1 (residues 591-899; Uniprot ID:Q8IVT5); rabbit MEK1 (residues 35-393; Uniprot ID: P29678); hexahistidine tag with TEV-cleavage site (N); made in house; host or cells: SF21 insect cells (baculovirus)
Description: (§4) BLI measurements were performed using an Octet Red96 (Forte Bio, Inc.) system. All experiments were conducted at 25° C. with shaking at 1000 rpm, and in a buffer containing 20 mM Hepes pH 7.5, 200 mM NaCl, 1 mM ATP, 5 mM MgCl2, 0.02% Tween-20, 1% DMSO. […] This amount of immobilization typically achieved 1.5-2.0 nm binding signal. Biosensors were then washed in buffer, treated in a solution of biocytin for 3 min, and then again washed extensively to achieve a normalized baseline signal of ˜0 nm. Following, for kinetic analysis, biosensors were dipped in solutions of free MEK1, BRAF:MEK1, KSR1:MEK1, or KSR2:MEK1. Association was measured for 10 or 15 minutes, following a dissociation phase in buffer of 15 minutes. […] All experiments were performed at least three independent times, with raw data processed and analyzed using global fit binding models in Fortebio software to derive KD (M), Kon(1/M·s), and Kdis (1/s) values. […] One-to-one binding models provided a high agreement with the measured binding signals based on chi-squared and R-squared values. Raw data and fitting, mean and standard deviation determinations, as well as statistical analysis, for KD, kon(1/M·s), kdis(1/s), and τ(min) are included in FIG. 71.

isolated MEK1 = molecular target: T7, isolated MEK1 (Oryctolagus cuniculus, UniProt P29678, S298N/S299K/Y300F); experiment: Bio-layer interferometry (BLI), isolated MEK1; type: binding, rabbit; details: read-out: dissociation constant (KD), isolated MEK1
T7 construct: rabbit MEK1 (residues 35-393; Uniprot ID: P29678); hexahistidine tag with TEV-cleavage site (N); made in house; host or cells: SF21 insect cells (baculovirus)
Description: as §4

BRAF-MEK1 = molecular target: T8, BRAF-MEK1 (Oryctolagus cuniculus, UniProt P29678, S298N/S299K/Y300F); experiment: Bio-layer interferometry (BLI), BRAF-MEK1; type: binding, human BRAF; rabbit MEK1; details: read-out: dissociation constant (KD), MEK1-BRAF
T8 construct: human BRAF (residues 432-726; Uniprot ID: P15056); rabbit MEK1 (residues 35-393; Uniprot ID: P29678); hexahistidine tag with TEV-cleavage site (N); made in house; host or cells: SF21 insect cells (baculovirus)
Description: as §4

KSR2-MEK1 = molecular target: T9, KSR2-MEK1 (UniProt P29678+Q6VAB6, S298N/S299K/Y300F); experiment: Bio-layer interferometry (BLI), KSR2-MEK1; type: binding, human KSR2; rabbit MEK1; details: read-out: dissociation constant (KD), KSR2-MEK1
T9 construct: human KSR2 (residues 634-950; Uniprot ID: Q6VAB6); rabbit MEK1 (residues 35-393; Uniprot ID: P29678); hexahistidine tag with TEV-cleavage site (N); made in house; host or cells: SF21 insect cells (baculovirus)
Description: as §4

[11] = BRET buildup, increasing tram-bo
[12] = HCT 116, low-adherence conditions

T9 sequence (Q6VAB6 634-950): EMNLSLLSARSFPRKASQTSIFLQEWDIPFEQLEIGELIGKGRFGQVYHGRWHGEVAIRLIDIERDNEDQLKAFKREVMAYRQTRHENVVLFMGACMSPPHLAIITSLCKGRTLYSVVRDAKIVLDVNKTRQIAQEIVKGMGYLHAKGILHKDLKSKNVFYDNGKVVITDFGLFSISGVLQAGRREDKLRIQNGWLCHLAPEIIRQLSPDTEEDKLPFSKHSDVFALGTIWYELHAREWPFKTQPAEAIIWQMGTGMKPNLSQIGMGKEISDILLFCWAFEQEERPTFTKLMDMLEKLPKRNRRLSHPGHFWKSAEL
T9 sequence (P29678 35-393 S298N/S299K/Y300F): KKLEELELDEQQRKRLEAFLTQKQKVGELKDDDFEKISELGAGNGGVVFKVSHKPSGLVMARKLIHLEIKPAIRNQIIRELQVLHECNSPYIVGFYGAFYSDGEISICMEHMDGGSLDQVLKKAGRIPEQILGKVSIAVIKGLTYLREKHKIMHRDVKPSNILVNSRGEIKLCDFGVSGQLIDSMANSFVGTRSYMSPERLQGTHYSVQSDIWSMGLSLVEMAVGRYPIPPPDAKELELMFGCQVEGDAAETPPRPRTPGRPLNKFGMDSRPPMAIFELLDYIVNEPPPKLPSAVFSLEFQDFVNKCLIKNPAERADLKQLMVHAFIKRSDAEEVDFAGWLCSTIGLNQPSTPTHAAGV
T8 sequence (P29678 35-393 S298N/S299K/Y300F): as above
T7 sequence (P29678 35-393 S298N/S299K/Y300F): as above
T6 sequence (Q8IVT5 591-899): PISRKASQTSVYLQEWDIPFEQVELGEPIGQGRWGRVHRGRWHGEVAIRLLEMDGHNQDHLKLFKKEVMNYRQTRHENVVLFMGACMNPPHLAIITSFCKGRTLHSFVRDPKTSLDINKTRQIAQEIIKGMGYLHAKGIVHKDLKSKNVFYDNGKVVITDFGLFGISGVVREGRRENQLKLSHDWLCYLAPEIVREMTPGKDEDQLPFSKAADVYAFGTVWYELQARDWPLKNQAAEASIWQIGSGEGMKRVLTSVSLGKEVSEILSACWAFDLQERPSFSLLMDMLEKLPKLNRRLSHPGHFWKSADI
T6 sequence (P29678 35-393 S298N/S299K/Y300F): as the sequence (P29678 35-393 S298N/S299K/Y300F) above

- IC50 (HCT 116; Homo sapiens, HCT-116, 120 h, low-adherence conditions, five days): 0.07 ± 0.04 nM
- selectivity in kinase binding experiments (MEK1 and MEK2 [8]): strong selectivity towards MEK1 and MEK2
- direct interaction with isolated BRAF or CRAF (isolated BRAF or CRAF): no direct interactions
- pulldown of wild-type BRAF via endogenous MEK1 (BRAF-MEK1 complex [1]): markedly enhanced capture of BRAF
Structure (SMILES): CNS(=O)(=O)Nc1cccc(-n2c(=O)n(C3CC3)c(=O)c3c(Nc4ccc(I)cc4F)n(C)c(=O)c(C)c32)c1 [trametiglue, N-(3-(3-Cyclopropyl-5-((2-fluoro-4-iodophenyl)amino)-6,8-dimethyl-2,4,7-trioxo-3,4,6,7-tetrahydropyrido[4,3-d]pyrimidin-1(2H)-yl)phenyl)methylaminosulfonamide]
- growth inhibition in clonogenic assay (KRAS-G12S A549 cells): enhanced and durable growth inhibition
- improvement in potency relative to CH5126766 (HCT 116; [12]): ~200 fold
- improvement in potency relative to trametinib (HCT 116; [12]): approximately 7 fold
- inhibition of RAS-MAPK signaling measured by pERK, relative to trametinib [7]: higher potency inhibitor of RAS-MAPK signaling
- potency and off-rate kinetics compared with trametinib ([2]; KSR-luc or MEK-luc reporters, steady-state and washout): retained similar potency and off-rate kinetics as trametinib
- inhibition of MEK1 and MEK2 substrate phosphorylation (MEK1 and MEK2 [9]): inhibited MEK1 and MEK2
- inhibition of MEK1 phosphorylation by upstream kinases [10]: inhibition of both BRAF and CRAF phosphorylation of MEK1

- Kd (KSR1-MEK1): 63.9 ± 4.7 nM
- Kd (isolated MEK1): 131 ± 9.4 nM
- Kd (BRAF-MEK1): 217 ± 3.2 nM
- Kd (KSR2-MEK1): 70.4 ± 4.4 nM
Structure (SMILES): CC(=O)Nc1cccc(-n2c(=O)n(C3CC3)c(=O)c3c(Nc4ccc(I)cc4F)n(C)c(=O)c(C)c32)c1 [trametinib]

Continued, compound first:

Structure (SMILES): CNS(=O)(=O)Nc1nccc(Cc2c(C)c3ccc(Oc4ncccn4)cc3oc2=O)c1F [CH5126766]
- pulldown of wild-type BRAF via endogenous MEK1 (BRAF-MEK1 complex [1]): enhances interactions between endogenous BRAF and MEK1

Structure (SMILES): O=C(c1ccc(F)c(F)c1Nc1ccc(I)cc1F)N1CC(O)([C@@H]2CCCCN2)C1 [cobimetinib]
- pulldown of KSR1 mutant K1 (P775N) via endogenous MEK1 (KSR1-MEK1 complex): did not alter complex stability
- dissociation kinetics after washout on KSR1-luc (KSR1-luc (KSR-bound MEK)): dissociated more readily
- IC50 on KSR1-luc compared with MEK1-luc ([2]; competition of tram-bo): more potent IC50 values on KSR1-luc over MEK1-luc
- dissociation kinetics after washout on MEK1-luc (MEK1-luc [3]): dissociated more readily
- difference in potency between KSR1-luc and MEK1-luc (MEK1-luc [4]): ~20 fold
- pulldown of BRAF mutant B2 (R662A) via endogenous MEK1 (BRAF-MEK1 complex [5]): did not alter complex stability

Structure (SMILES): Cc1c(=O)n(C)c(Nc2ccc(I)cc2F)c2c(=O)n(C3CC3)c(=O)n(-c3cccc(NS(=O)(=O)NC4CC4)c3)c12 [compound 5, N-(3-(3-cyclopropyl-5-((2-fluoro-4-iodophenyl)amino)-6,8-dimethyl-2,4,7-trioxo-3,4,6,7-tetrahydropyrido[4,3-d]pyrimidin-1(2H)-yl)phenyl)cyclopropylaminosulfonamide]
- growth inhibition in clonogenic assay (KRAS-G12S A549 cells): enhanced and durable growth inhibition

Structure (SMILES): CCN(C)S(=O)(=O)Nc1cccc(-n2c(=O)n(C3CC3)c(=O)c3c(Nc4ccc(I)cc4F)n(C)c(=O)c(C)c32)c1 [compound 6, N-(3-(3-cyclopropyl-5-((2-fluoro-4-iodophenyl)amino)-6,8-dimethyl-2,4,7-trioxo-3,4,6,7-tetrahydropyrido[4,3-d]pyrimidin-1(2H)-yl)phenyl)-N′-ethyl(methyl)sulfonamide 2,2,2-trifluoroacetate]
- growth inhibition in clonogenic assay (KRAS-G12S A549 cells): enhanced and durable growth inhibition

Structure (SMILES): Cc1c(=O)n(C)c(Nc2ccc(I)cc2F)c2c(=O)n(C3CC3)c(=O)n(-c3cccc(NC(=O)CCOCCOCCNC(=O)CCC4=[N+]5C(=Cc6ccc(-c7ccc[nH]7)n6[B-]5(F)F)C=C4)c3)c12 [tram-bo]
- binding to KSR2-luc relative to ARAF-luc, BRAF-luc and CRAF-luc (human KSR2-luc; [11]): ~10 fold
- BRET binding signal, KSR2-luc (human KSR2-luc; in cells): strong BRET binding signals
- BRET signal, ARAF-luc, BRAF-luc, CRAF-luc [6]: much weaker BRET signals
- binding to KSR1-luc relative to ARAF-luc, BRAF-luc and CRAF-luc (human KSR1-luc; [11]): ~10 fold
- BRET binding signal, KSR1-luc (human KSR1-luc; in cells): strong BRET binding signals

From patent US12667570B2, “Small molecule modulators of KSR-bound MEK” (Icahn School of Medicine at Mount Sinai, priority 2020, dated 2026)
